Reference: patent EP0195116A2, “Compound having antibacterial and antimycotic activities, preparation thereof and pharmaceutical compositions containing it” (ISTITUTO FARMACO BIOLOGICO RIPARI GERO S.r.l., priority 1985, dated 1986)
In brackets after ≈: the same amount, converted by molar mass.

Columns and labels:
[1] = system: Tricophyton mentagrophites 1; test: In vitro antimycotic activity (M.I.C.), scalar dilutions in liquid medium on Microtiter plates; type: cell-based
Procedure: (§1) The method is that of scalar dilutions of the test compounds on Microtiter plates, in a 1:2 dilution ratio. Suspensions (titre: 10^4) of fungal sporae and Candida cells, grown on Sabouraud, and Dextrose Agar, were collected at the moment of use in the same medium used for the test and inoculated by means of a multi inoculation Microtiter device.
(§2) M.I.C. values were determined by means of visual observation of fungal growth respectively after 24 hours (Candida albicans) and 48 and 72 hours (dermatophytes) incubation at 24°C.

[2] = system: Candida albicans 1; test: as above; type: cell-based
Procedure: as §1, §2

[3] = system: Candida albicans 3; test: as above; type: cell-based
Procedure: as §1, §2

[4] = system: Microsporum canis 1; test: as above; type: cell-based
Procedure: as §1, §2

[5] = system: Aspergillus fumigatus 2; test: as above; type: cell-based
Procedure: as §1, §2

[6] = system: Epidermophyton floccosum 1; test: as above; type: cell-based
Procedure: as §1, §2

[7] = system: Candida albicans 2; test: as above; type: cell-based
Procedure: as §1, §2

[8] = system: Microsporum canis 2; test: as above; type: cell-based; conditions: hospital isolate, 48 and 72 hours incubation at 24°C
Procedure: as §1, §2

[9] = system: Aspergillus fumigatus 1; test: as above; type: cell-based
Procedure: as §1, §2

[10] = system: Klebsiella pneumoniae ATCC 1003; test: In vitro antibacterial activity (M.I.C.), scalar dilutions on agar plates; type: cell-based
Procedure: (§3) The method was that of scalar dilutions of the test products on agar plates, in a 1:2 dilution ratio. Bacterial suspensions grown overnight in Brain Heart Infusion DIFCO, were diluted 1/100 in new culture medium and inoculated by means of a multiinoculation device.
(§4) M.I.C. values were determined by visual observation of bacterial growth, after 18 hours incubation, at 37°C.

[11] = system: Escherichia coli OMI 17; test: as above; type: cell-based; conditions: 18 hours incubation at 37°C
Procedure: as §3, §4

[12] = system: Streptococcus faecalis OMI 2; test: as above; type: cell-based; conditions: 18 hours incubation at 37°C
Procedure: as §3, §4

[13] = system: Staphylococcus aureus 35; test: as above; type: cell-based
Procedure: as §3, §4

[14] = system: Streptococcus faecalis OMI 1; test: as above; type: cell-based; conditions: 18 hours incubation at 37°C
Procedure: as §3, §4

[15] = system: Sarcina lutea ATCC 9341; test: as above; type: cell-based; conditions: 18 hours incubation at 37°C
Procedure: as §3, §4

[16] = system: Proteus vulgaris OMI 4; test: as above; type: cell-based; conditions: 18 hours incubation at 37°C
Procedure: as §3, §4

[17] = system: Streptococcus pyogenes A/1; test: as above; type: cell-based
Procedure: as §3, §4

[18] = system: Staphylococcus aureus 38; test: as above; type: cell-based
Procedure: as §3, §4

[19] = system: Escherichia coli OMI 16; test: as above; type: cell-based; conditions: 18 hours incubation at 37°C
Procedure: as §3, §4

[20] = system: Streptococcus pyogenes C; test: as above; type: cell-based
Procedure: as §3, §4

[21] = system: Pseudomonas aeruginosa OMI 1; test: as above; type: cell-based; conditions: 18 hours incubation at 37°C
Procedure: as §3, §4

[22] = system: Staphylococcus aureus ATCC 9144; test: as above; type: cell-based
Procedure: as §3, §4

[23] = Pharmacokinetics in the rat by oral administration (serum and urinary concentrations by agar-well diffusion bioassay)

1-{[2-(2,4-dichlorophenyl)-2-(2,4-dichlorophenyl)methoxy]ethyl}-1-pivaloyloxymethyl-lH-imidazolium chloride [RG 024]
M.I.C. ([1]; Tricophyton mentagrophites 1, hospital isolate, liquid medium, 48 and 72 hours incubation at 24°C): 0.78 µg/mL
M.I.C. ([2]; Candida albicans 1, hospital isolate, liquid medium, 24 hours incubation at 24°C): 1.56 µg/mL
M.I.C. ([3]; Candida albicans 3, hospital isolate, liquid medium, 24 hours incubation at 24°C): 0.78 µg/mL
M.I.C. ([4]; Microsporum canis 1, hospital isolate, liquid medium, 48 and 72 hours incubation at 24°C): 12.5 µg/mL
M.I.C. ([5]; Aspergillus fumigatus 2, hospital isolate, liquid medium, incubation at 24°C): 3.12 µg/mL
M.I.C. ([6]; Epidermophyton floccosum 1, hospital isolate, liquid medium, 48 and 72 hours incubation at 24°C): 1.56 µg/mL
M.I.C. ([7]; Candida albicans 2, hospital isolate, liquid medium, 24 hours incubation at 24°C): 0.39 µg/mL
M.I.C. [8]: 6.12 µg/mL
M.I.C. ([9]; Aspergillus fumigatus 1, hospital isolate, liquid medium, incubation at 24°C): 6.25 µg/mL
M.I.C. ([10]; Klebsiella pneumoniae ATCC 1003, Isosensitest agar, 18 hours incubation at 37°C): 12.5 µg/mL
M.I.C. ([11]; Isosensitest agar): 6.25 µg/mL
M.I.C. ([12]; Isosensitest agar): 6.25 µg/mL
M.I.C. ([13]; Staphylococcus aureus 35, Isosensitest agar, 18 hours incubation at 37°C): 0.39 µg/mL
M.I.C. ([14]; Isosensitest agar): 6.25 µg/mL
M.I.C. ([15]; Isosensitest agar): 0.19 µg/mL
M.I.C. ([16]; Isosensitest agar): 50 µg/mL
M.I.C. ([17]; Streptococcus pyogenes A/1, Isosensitest agar, 18 hours incubation at 37°C): 0.19 µg/mL
M.I.C. ([18]; Staphylococcus aureus 38, Isosensitest agar, 18 hours incubation at 37°C): 0.19 µg/mL
M.I.C. ([19]; Isosensitest agar): 6.25 µg/mL
M.I.C. ([20]; Streptococcus pyogenes C, Isosensitest agar, 18 hours incubation at 37°C): 0.39 µg/mL
M.I.C. ([21]; Isosensitest agar): >200 µg/mL
M.I.C. ([22]; Staphylococcus aureus ATCC 9144, Isosensitest agar, 18 hours incubation at 37°C): 0.19 µg/mL

Clc1ccc(COC(Cn2ccnc2)c2ccc(Cl)cc2Cl)c(Cl)c1 (stereo not drawn) [miconazole]
MIC [1]: 1.56 µg/mL (≈ 3.75 µM)
MIC ([2]; Candida albicans, 1, 24 h): 3.12 µg/mL (≈ 7.5 µM)
MIC ([3]; Candida albicans, 3, 24 h): 1.56 µg/mL (≈ 3.75 µM)
MIC ([4]; Microsporum canis, 1): 12.5 µg/mL (≈ 30 µM)
MIC ([5]; Aspergillus fumigatus, 2): 6.25 µg/mL (≈ 15 µM)
MIC ([6]; Epidermophyton floccosum, 1): 1.56 µg/mL (≈ 3.75 µM)
MIC ([7]; Candida albicans, 2, 24 h): 1.56 µg/mL (≈ 3.75 µM)
MIC [8]: 6.12 µg/mL (≈ 14.7 µM)
MIC ([9]; Aspergillus fumigatus, 1): 6.25 µg/mL (≈ 15 µM)
presence / detectability of the compound over time [23]: may not be detected in significant amounts after the 6 ^th hour
MIC ([10]; Klebsiella pneumoniae, ATCC1003, 18 h): 25 µg/mL (≈ 60.1 µM)
MIC ([11]; OMI17, Isosensitest agar): 12.5 µg/mL (≈ 30 µM)
MIC ([12]; Enterococcus faecalis, OMI2, Isosensitest agar): 6.25 µg/mL (≈ 15 µM)
MIC ([13]; Staphylococcus aureus, 35, 18 h): 6.25 µg/mL (≈ 15 µM)
MIC ([14]; Enterococcus faecalis, OMI1, Isosensitest agar): 12.5 µg/mL (≈ 30 µM)
MIC ([15]; Micrococcus luteus, ATCC9341, Isosensitest agar): 0.19 µg/mL (≈ 0.457 µM)
MIC ([16]; OMI4, Isosensitest agar): 100 µg/mL (≈ 240 µM)
MIC ([17]; Streptococcus pyogenes, 18 h): 0.39 µg/mL (≈ 0.937 µM)
MIC ([18]; Staphylococcus aureus, 38, 18 h): 0.39 µg/mL (≈ 0.937 µM)
MIC ([19]; OMI16, Isosensitest agar): 25 µg/mL (≈ 60.1 µM)
MIC ([20]; Streptococcus pyogenes, 18 h): 0.39 µg/mL (≈ 0.937 µM)
MIC ([21]; OMI1, Isosensitest agar): > 200 µg/mL
MIC ([22]; Staphylococcus aureus, ATCC9144, 18 h): 0.39 µg/mL (≈ 0.937 µM)
